# Where two headings read alike, the source gives them in different places.
# Molecular target: T1, bacterial NAD synthetase enzyme (Bacillus subtilis, UniProt P08164)
# T1 sequence (P08164 2-272 limits assumed): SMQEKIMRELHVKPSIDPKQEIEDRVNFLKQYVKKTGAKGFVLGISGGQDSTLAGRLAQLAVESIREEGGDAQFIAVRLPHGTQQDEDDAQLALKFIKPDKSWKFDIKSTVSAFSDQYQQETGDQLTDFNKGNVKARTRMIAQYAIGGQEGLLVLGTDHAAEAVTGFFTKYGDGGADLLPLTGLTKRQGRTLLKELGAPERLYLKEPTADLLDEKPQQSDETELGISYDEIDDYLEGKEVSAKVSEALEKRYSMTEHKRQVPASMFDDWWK
# Experiment: biochemical
# Format: biochemical
# [1] = compound at 0.2 mM (Table 312A)
Structure (SMILES),% Inhibition [1],also measured
CC(=O)c1ccc2[nH]c(CCC[n+]3cccc4ccccc43)cc2c1 [Compound 474],2.45%,
CC(=O)c1ccc2[nH]c(CCCCCCC[n+]3cccc4ccccc43)cc2c1 [Compound 478],9.76%,
COc1ccc2[nH]c(CCCCCCC[n+]3cccc4ccccc43)cc2c1 [Compound 484],39.95%,
COC(=O)c1ccc2[nH]c(CCCC[n+]3cccc4ccccc43)cc2c1 [Compound 487],,% Inhibition (compound at 0.1 mM (Table 314)): 9.88%
COC(=O)c1ccc2[nH]c(CCCCCC[n+]3cccc4ccccc43)cc2c1 [Compound 489],5.87%,
COC(=O)c1ccc2[nH]c(CCCCCCC[n+]3cccc4ccccc43)cc2c1 [Compound 490],2.96%,
O=C(O)c1ccc2[nH]c(CCCC[n+]3cccc4ccccc43)cc2c1 [Compound 493],9.12%,
O=C(O)c1ccc2[nH]c(CCCCC[n+]3cccc4ccccc43)cc2c1 [Compound 494],17.44%,
O=C(O)c1ccc2[nH]c(CCCCCC[n+]3cccc4ccccc43)cc2c1 [Compound 495],6.80%,
O=C(O)c1ccc2[nH]c(CCCCCCC[n+]3cccc4ccccc43)cc2c1 [Compound 496],36.97%,
O=C(O)c1ccc2[nH]c(CCCCCCCC[n+]3cccc4ccccc43)cc2c1 [Compound 497],29.10%,
c1ccc2c[n+](CCCc3cc4ccccc4[nH]3)ccc2c1 [Compound 498],47.31%,
c1ccc2c[n+](CCCCc3cc4ccccc4[nH]3)ccc2c1 [Compound 499],25.59%,
c1ccc2c[n+](CCCCCCCc3cc4ccccc4[nH]3)ccc2c1 [Compound 502],44.08%,
FC(F)(F)c1ccc2cc(CCCC[n+]3ccc4ccccc4c3)[nH]c2c1 [Compound 505],25.51%,
FC(F)(F)c1ccc2cc(CCCCCCCC[n+]3ccc4ccccc4c3)[nH]c2c1 [Compound 509],78.00%,
Cc1ccc2[nH]c(CCC[n+]3ccc4ccccc4c3)cc2c1 [Compound 510],20.99%,
Cc1ccc2[nH]c(CCCC[n+]3ccc4ccccc4c3)cc2c1 [Compound 511],11.02%,
Cc1ccc2[nH]c(CCCCCCC[n+]3ccc4ccccc4c3)cc2c1 [Compound 514],22.32%,
Cc1ccc2[nH]c(CCCCCCCC[n+]3ccc4ccccc4c3)cc2c1 [Compound 515],30.39%,
Fc1cc(F)c2[nH]c(CCC[n+]3ccc4ccccc4c3)cc2c1 [Compound 516],29.95%,
Fc1cc(F)c2[nH]c(CCCC[n+]3ccc4ccccc4c3)cc2c1 [Compound 517],34.72%,
Fc1cc(F)c2[nH]c(CCCCCCC[n+]3ccc4ccccc4c3)cc2c1 [Compound 520],55.83%,
Fc1cc(F)c2[nH]c(CCCCCCCC[n+]3ccc4ccccc4c3)cc2c1 [Compound 521],29.59%,
O=[N+]([O-])c1cc([N+](=O)[O-])c2[nH]c(CCC[n+]3ccc4ccccc4c3)cc2c1 [Compound 522],35.74%,
O=[N+]([O-])c1cc([N+](=O)[O-])c2[nH]c(CCCC[n+]3ccc4ccccc4c3)cc2c1 [Compound 523],18.12%,

Structure (SMILES),% Inhibition [1],also measured
O=[N+]([O-])c1cc([N+](=O)[O-])c2[nH]c(CCCCCC[n+]3ccc4ccccc4c3)cc2c1 [Compound 525],8.39%,
O=[N+]([O-])c1cc([N+](=O)[O-])c2[nH]c(CCCCCCC[n+]3ccc4ccccc4c3)cc2c1 [Compound 526],42.77%,
O=[N+]([O-])c1cc([N+](=O)[O-])c2[nH]c(CCCCCCCC[n+]3ccc4ccccc4c3)cc2c1 [Compound 527],73.78%,
CCCCc1ccc2[nH]c(CCC[n+]3ccc4ccccc4c3)cc2c1 [Compound 528],65.81%,
CCCCc1ccc2[nH]c(CCCCCCCC[n+]3ccc4ccccc4c3)cc2c1 [Compound 533],24.68%,
CC(C)c1ccc2[nH]c(CCC[n+]3ccc4ccccc4c3)cc2c1 [Compound 534],26.99%,
CC(C)c1ccc2[nH]c(CCCC[n+]3ccc4ccccc4c3)cc2c1 [Compound 535],12.61%,
c1ccc(-c2ccc3[nH]c(CCCC[n+]4ccc5ccccc5c4)cc3c2)cc1 [Compound 541],,% Inhibition (compound at 0.1 mM (Table 314)): 10.26%
c1ccc(-c2ccc3[nH]c(CCCCCCC[n+]4ccc5ccccc5c4)cc3c2)cc1 [Compound 544],19.66%,
O=[N+]([O-])c1ccc2[nH]c(CCC[n+]3ccc4ccccc4c3)cc2c1 [Compound 546],,% Inhibition (compound at 0.1 mM (Table 314)): 4.72%
O=[N+]([O-])c1ccc2[nH]c(CCCCCCCC[n+]3ccc4ccccc4c3)cc2c1 [Compound 551],50.05%,
c1ccc(C(c2ccccc2)(c2ccccc2)c2ccc3[nH]c(CCCCCC[n+]4ccc5ccccc5c4)cc3c2)cc1 [Compound 555],30.89%,
Fc1ccc2[nH]c(CCC[n+]3ccc4ccccc4c3)cc2c1 [Compound 558],1.27%,
Fc1ccc2[nH]c(CCCC[n+]3ccc4ccccc4c3)cc2c1 [Compound 559],33.24%,
Fc1ccc2[nH]c(CCCCCC[n+]3ccc4ccccc4c3)cc2c1 [Compound 561],24.70%,
Fc1ccc2[nH]c(CCCCCCCC[n+]3ccc4ccccc4c3)cc2c1 [Compound 563],22.68%,
c1ccc(Oc2ccc3[nH]c(CCCCCC[n+]4ccc5ccccc5c4)cc3c2)cc1 [Compound 567],22.51%,
c1ccc(Oc2ccc3[nH]c(CCCCCCCC[n+]4ccc5ccccc5c4)cc3c2)cc1 [Compound 569],34.84%,
O=C(c1ccccc1)c1ccc2[nH]c(CCCC[n+]3ccc4ccccc4c3)cc2c1 [Compound 571],17.47%,
O=C(c1ccccc1)c1ccc2[nH]c(CCCCCCC[n+]3ccc4ccccc4c3)cc2c1 [Compound 574],11.95%,
O=C(c1ccccc1)c1ccc2[nH]c(CCCCCCCC[n+]3ccc4ccccc4c3)cc2c1 [Compound 575],42.01%,
FC(F)(F)c1ccc2[nH]c(CCC[n+]3ccc4ccccc4c3)cc2c1 [Compound 576],2.05%,
FC(F)(F)c1ccc2[nH]c(CCCC[n+]3ccc4ccccc4c3)cc2c1 [Compound 577],20.58%,
FC(F)(F)c1ccc2[nH]c(CCCCCCCC[n+]3ccc4ccccc4c3)cc2c1 [Compound 581],21.66%,
CC(=O)c1ccc2[nH]c(CCC[n+]3ccc4ccccc4c3)cc2c1 [Compound 582],6.13%,
CC(=O)c1ccc2[nH]c(CCCC[n+]3ccc4ccccc4c3)cc2c1 [Compound 583],31.37%,

Structure (SMILES),% Inhibition [1],also measured
CC(=O)c1ccc2[nH]c(CCCCCCC[n+]3ccc4ccccc4c3)cc2c1 [Compound 586],2.01%,
COc1ccc2[nH]c(CCC[n+]3ccc4ccccc4c3)cc2c1 [Compound 588],2.49%,
COc1ccc2[nH]c(CCCCCC[n+]3ccc4ccccc4c3)cc2c1 [Compound 591],18.59%,
COc1ccc2[nH]c(CCCCCCC[n+]3ccc4ccccc4c3)cc2c1 [Compound 592],18.70%,
COC(=O)c1ccc2[nH]c(CCC[n+]3ccc4ccccc4c3)cc2c1 [Compound 594],2.77%,
COC(=O)c1ccc2[nH]c(CCCC[n+]3ccc4ccccc4c3)cc2c1 [Compound 595],17.94%,
O=C(O)c1ccc2[nH]c(CCC[n+]3ccc4ccccc4c3)cc2c1 [Compound 600],3.10%,
O=C(O)c1ccc2[nH]c(CCCC[n+]3ccc4ccccc4c3)cc2c1 [Compound 601],2.22%,
O=C(O)c1ccc2[nH]c(CCCCCCC[n+]3ccc4ccccc4c3)cc2c1 [Compound 604],34.10%,
CN(C)c1ccc(C(=O)OCCCCCCCc2cc3cc(Oc4ccccc4)ccc3[nH]2)cc1 [Compound 619],19.53%,
CC(=O)c1ccc2[nH]c(CCCCCCCOC(=O)c3ccc(N(C)C)cc3)cc2c1 [Compound 637],,% Inhibition (compound at 0.1 mM (Table 314)): 4.42%
O=C(OCCCCCCCc1cc2cc(Oc3ccccc3)ccc2[nH]1)c1cccnc1 [Compound 685],7.81%,
O=C(OCCCCCCCc1cc2ccc(C(F)(F)F)cc2[nH]1)c1ccncc1 [Compound 697],4.28%,
O=[N+]([O-])c1ccc2[nH]c(CCCC[n+]3ccccc3)cc2c1 [Compound 712],12.59%,
FC(F)(F)c1ccc2cc(CCCC[n+]3ccccc3)[nH]c2c1 [Compound 715],,% Inhibition (compound at 0.1 mM (Table 314)): 20.73%
COc1ccc2c(ccn2CCCCCOC(=O)Cc2ccc([N+](C)(C)C)cc2)c1 [Compound 741],30.47%,
COc1ccc2c(ccn2CCCCOC(=O)c2ccc[n+](C)c2)c1 [Compound 760],2.28%,
COc1ccc2c(ccn2CCCCCOC(=O)c2ccc[n+](C)c2)c1 [Compound 761],6.88%,
COc1ccc2c(ccn2CCCCCCOC(=O)c2ccc[n+](C)c2)c1 [Compound 762],40.05%,
CN(C)c1ccc(CC(=O)OCCCCCn2ccc3cc([N+](=O)[O-])ccc32)cc1 [Compound 849],,"% Inhibition (compound at 0.1 mM (Table 314)): 90.92%; IC50 (lead compounds (Table 318A), read-out: IC 50): 70 µM"
C[n+]1cccc(C(=O)OCCCCCCCCn2ccc3cc([N+](=O)[O-])ccc32)c1 [Compound 867],70.33%,
C[N+](C)(C)c1cccc(C(=O)OCCCCc2cc3ccc(C(F)(F)F)cc3[nH]2)c1 [Compound 868],,% Inhibition (compound at 0.25 mM): 13.5%
C[N+](C)(C)c1cccc(C(=O)OCCCCCCCc2cc3ccc(C(F)(F)F)cc3[nH]2)c1 [Compound 869],,IC50: 40 µM
C[N+](C)(C)c1cccc(C(=O)OCCCCCCCCc2cc3ccc(C(F)(F)F)cc3[nH]2)c1 [Compound 870],,% Inhibition (compound at 0.25 mM): 63.1%

# — patent US6727237B2, “Inhibitors of bacterial NAD synthetase” (priority 1998, dated 2004)
